Converted amounts (≈) assume the structure as drawn.
Columns and labels:
[1] = Refractive index at 589.3 nm; type: physicochemical; settings: neat compound
Description: (§1) The following examples represent a variety of liquid lenses prepared according to Varioptic A39N0 design. The Varioptic A39N0 lens design includes a mechanical aperture of about 3.9 mm, a non-conductive fluid layer thickness of about 0.6 mm, and a conductive fluid layer thickness of about 1.8 mm. The properties measured for these electrowetting optical devices were performed at 20° C.
(§2) Example of the naphthalene based compounds disclosed herein have a listing of some of their physical properties listed below.

[2] = Solubility in ethylene glycol; settings: organic solvent or mixture
Viscosity at 20° C. = type: physicochemical; settings: neat compound
Description: as §1, §2

[3] = Density of naphthalene based compounds and liquid lens liquids; type: physicochemical; design: Density at 20° C.: unit not given here; settings: for Density at 20° C.: neat compound
Solubility in water = settings: 20 °C

Row | Density ([3]; comparative aliphatic oil, temperature not given) | SMILES | Index at 589.3 nm/20° C. [1] | solubility ([2]; 20 °C) | solubility ([2]; 85 °C) | Viscosity at 20° C. (Viscosity at 20° C.) | Density at 20° C. [3] | solubility (Solubility in water) | Density ([3]; 25° C.)
1 |  | CCCC[Si](C)(C)c1ccc2ccccc2c1 [IX, 2-dimethylbutylsilane naphthalene] | 1.57 | 1100 µg/mL (≈ 4.54 mM) | 2100 µg/mL (≈ 8.66 mM) | 14.9 cSt | 0.97 |  | 
2 |  | [CH3][Ge]([CH3])([CH3])[c]1ccc2ccccc2c1 [VI, 2-trimethylgermane naphthalene] | 1.59 | 3400 µg/mL | 14800 µg/mL | 6.1 cSt | 1.19 | 6 µg/mL | 
3 |  | C[CH2][Ge]([CH2]C)([CH2]C)[c]1ccc2ccccc2c1 [VII, 2-triethylgermane naphthalene] | 1.58 | 1900 µg/mL | 4200 µg/mL | 10.6 cSt | 1.14 |  | 
4 |  | C[Si](C)(C)c1ccc2ccccc2c1 [VIII, 2-trimethylsilane naphthalene] | 1.58 |  |  | 8.1 cSt | 1.01 |  | 
5 |  | c1ccc(Sc2ccc3ccccc3c2)cc1 [X, 2-phenylsulfur naphthalene] | 1.69 |  |  | 33.8 cSt | 1.16 |  | 
6 |  | CCCCCCCC[Si](C)(C)c1ccc2ccccc2c1 [XI, 2-dimethyloctylsilane naphthalene] | 1.54 | 440 µg/mL (≈ 1.47 mM) | 680 µg/mL (≈ 2.28 mM) | 25.9 cSt | 0.95 |  | 
7 |  | Fc1cccc2ccccc12 [XII, 1-fluoronapthalene] | 1.59 |  |  | 2.1 cSt | 1.13 |  | 
8 |  | CCc1ccc2ccccc2c1 [XIII, 2-ethylnaphthalene] | 1.61 |  |  | 3.9 cSt | 1.01 |  | about 1.01 g/cm^3
9 |  | CCCc1ccc2ccccc2c1 [XIV, 2-propylnaphthalene] | 1.58 |  |  |  | 0.98 |  | 
10 | 0.75 g/mL | CCCCCCCCCCCC [dodecane, reference compound] |  |  |  |  |  |  | 

From patent US11204492B2, “Naphtyl based high index hydrophobic liquids and transmission recovery agents for liquid lens formulations” (CORNING INCORPORATED, priority 2018, dated 2021)
